Test results published in patent publication US20090042883A1, “ANTITUMOR AGENT” (KYOWA HAKKOKOGYO CO., priority 2005, published 2009).

Key:
[1] = test system: human chronic myelocytic leukemia K562 cells; experiment: Antitumor effect in vivo, mouse model transplanted with human chronic myelocytic leukemia K562 cells; details: K562 subcutaneous transplant in Fox C.B-17/Icr-scid mice; 100 mg/kg intravenously twice a day on days 0, 1, 2, 7, 8, 9; tumor volume to day 22
Experimental: Using an experimental system in which human chronic myelocytic leukemia K562 cells were transplanted into immunodeficient mice as disease models of hematopoietic tumor, the antitumor effect in vivo of Compound 33 was examined.
One day before the transplantation of cancer cells, an anti-asialo GM1 antibody was intraabdominally administered to Fox C.B-17/Icr-scidJc1 mice (CLEA Japan) in an amount of 0.3 mg per mouse. K562 cells were cultured and grown in RPMI1640 medium containing 10% fetal calf serum (FCS) in a 5% carbon dioxide incubator at 37° C., and the cultured cells (1×10^7 cells/mouse) were subcutaneously, ventrally transplanted into the mice. Ten days after the transplantation, the major axis and minor axis of the tumors subcutaneously grown were measured with slide calipers, and the tumor volume was determined according to the following formula: […]
(§1) At the same time, the body weight of each mouse was measured, and the mice were divided into two groups, i.e., a group to be administered with drugs and a group not to be administered with drugs, such that each group consists of five mice with various weights and tumor volumes. This day was defined as day 0 of the administration test. Drug administration was started in the following manner. […]

[2] = test system: human lung cancer NCI-H596 cells; experiment: Antitumor effect in vivo, mouse model transplanted with human lung cancer NCI-H596 cells; details: NCI-H596 subcutaneous transplant in BALB/cAJc1-nu mice; 50 mg/kg intravenously twice a day on days 0 to 4; tumor volume to day 17
Experimental: Using an experimental system in which human lung cancer NCI-H596 cells were transplanted into immunodeficient mice as disease models of solid tumor, the antitumor effect in vivo of Compound 33 was examined.
NCI-H596 cells were cultured and grown in RPMI1640 medium containing 10% fetal calf serum (FCS) in a 5% carbon dioxide incubator at 37° C., and the cultured cells (1×10^7 cells/mouse) were subcutaneously, ventrally transplanted into BALB/cAJc1-nu mice (CLEA Japan). From the mice in which tumors were formed, the tumors were removed. The tumor tissues were cut into small pieces of about 8 mm^3, which were subcutaneously, ventrally transplanted, using a trocar needle, into BALB/cAJc1-nu mice (CLEA Japan) to be used for experiment. Seventeen days after the transplantation, the major axis and minor axis of the tumors subcutaneously grown were measured with slide calipers, and the tumor volume was determined according to the following formula: […]
as §1

[3] = test system: human prostate cancer 22Rv1 cells; experiment: Antitumor effect in vivo, mouse model transplanted with human prostate cancer 22Rv1 cells; details: 22Rv1 subcutaneous transplant in BALB/cAJc1-nu mice; 100 mg/kg intravenously twice a day on days 0 to 4; tumor volume to day 17
Experimental: Using an experimental system in which human prostate cancer 22Rv1 cells were transplanted into immunodeficient mice as disease models of solid tumor, the antitumor effect in vivo of Compound 33 was examined.
22Rv1 cells were cultured and grown in RPMI1640 medium containing 10% fetal calf serum (FCS) in a 5% carbon dioxide incubator at 37° C., and the cultured cells (1×10^7 cells/mouse) were subcutaneously, ventrally transplanted into BALB/cAJc1-nu mice (CLEA Japan). Seventeen days after the transplantation, the major axis and minor axis of the tumors subcutaneously grown were measured with slide calipers, and the tumor volume was determined according to the following formula: […]
as §1

CCc1c(O)cc(O)c(C(=O)c2ccc(OC)cc2)c1CC(=O)N(CCO)CCOC [Compound 33]
apparent suppression of tumor growth: antitumor effect in vivo (tumor volume, FIG. 1) [1] | antitumor effect in vivo (tumor volume, FIG. 2) [2] | antitumor effect in vivo (tumor volume, FIG. 3) [3]
